Experimental data published in patent US20030229063A1, “Use of 4-hydroxytestosterone to lower estrogen levels in humans” (priority 2002, published 2003).

What was measured:
aromatase [1] = biological target: T1, aromatase (Homo sapiens, UniProt P11511); conditions: androstenedione vs testosterone as aromatase substrates; cited from earlier work
T1 sequence (P11511 1-503): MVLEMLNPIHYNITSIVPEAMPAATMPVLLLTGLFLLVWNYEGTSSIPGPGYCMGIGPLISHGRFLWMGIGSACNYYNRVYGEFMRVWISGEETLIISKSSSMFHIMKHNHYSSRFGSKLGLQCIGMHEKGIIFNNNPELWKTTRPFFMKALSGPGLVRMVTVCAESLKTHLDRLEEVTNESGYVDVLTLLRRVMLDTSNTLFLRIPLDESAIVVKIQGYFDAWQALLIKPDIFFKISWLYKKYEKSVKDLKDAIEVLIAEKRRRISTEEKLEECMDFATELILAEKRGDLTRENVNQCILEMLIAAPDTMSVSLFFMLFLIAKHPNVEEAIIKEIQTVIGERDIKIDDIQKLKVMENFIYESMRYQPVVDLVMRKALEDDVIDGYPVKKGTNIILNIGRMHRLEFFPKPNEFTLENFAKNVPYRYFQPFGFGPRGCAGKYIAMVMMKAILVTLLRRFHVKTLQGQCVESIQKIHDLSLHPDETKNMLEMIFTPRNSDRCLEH

aromatase enzyme complex = biological target: T2, aromatase enzyme complex (Homo sapiens, UniProt P11511); conditions: irrevocably attaches the enzyme; cited from earlier work
T2 sequence (P11511 1-503): T1 sequence (P11511 1-503)

aromatase [2] = biological target: T1, aromatase; assay: clinical study of peroral aromatase inhibition in man; type: in vivo; design: from tissue; host or cells: in vivo, human subjects (whole body); conditions: in humans

SMILES | ability to aromatize to the corresponding estrogen (aromatase [1]) | further results
C[C@]12CC[C@H]3[C@@H](CCC4=CC(=O)CC[C@@]43C)[C@@H]1CC[C@@H]2O [testosterone] | both hormones aromatized with equal efficacy | –
C[C@]12CCC(=O)C(O)=C1CC[C@@H]1[C@@H]2CC[C@]2(C)C(=O)CC[C@@H]12 [4-hydroxyandrostenedione] | – | mode of aromatase inhibition (aromatase enzyme complex): suicide substrate for the aromatase enzyme complex
C[C@]12CCC(=O)C=C1CC[C@@H]1[C@@H]2CC[C@]2(C)C(=O)CC[C@@H]12 [androstenedione] | both hormones aromatized with equal efficacy | –
C[C@]12CC[C@H]3[C@@H](CCC4=C(O)C(=O)CC[C@@]43C)[C@@H]1CC[C@@H]2O [4-hydroxytestosterone, 4,17b-dihydroxy-4-androstene-3-one] | – | efficacy as an inhibitor of aromatase compared with 4-hydroxyandrostenedione (aromatase [2]): equally high level of efficacy in humans as an inhibitor of aromatase
